According to the SangsterLogP compilation:

Assay: method code SF, from DOI: 10.1016/j.ejps.2012.10.019, PMID: 23131797

logD (pH 5.0)	Structure (SMILES)	further results
5.96	COc1ccc(OC)c(NC(=O)c2ccc(NC3=C(Cl)C(=O)N(C4CCCCC4)C3=O)cc2)c1	–
–	Cc1ccnc(N(C(=O)c2cc3c(s2)CCCC3)C(=O)c2cc3c(s2)CCCC3)c1	logD (pH 7.3): 5.76
–	O=C(CSc1nnc(-c2ccccc2)n1-c1ccccc1)N1CCN(C(=O)c2ccccc2)CC1	logD (pH 10.5): 4.64
–	C=CCn1c(SCc2ccccc2)nc2ccccc2c1=O	logD (pH 7.3): 5.11
–	O=C(Nc1cccc(-c2cnc3ccccc3n2)c1)c1cccs1	logD (pH 7.3): 4.34
3.19	O=C(CS(=O)(=O)Cc1ccccc1)Nc1ccc2c(c1)OCCO2	–
–	N#CC1=C(N)Oc2c(oc(CO)cc2=O)C1c1ccccc1OCc1ccccc1Cl (centres undefined)	logD (pH 6.5): 4.34
6.06	FC(F)(F)c1nc(-c2ccc(-c3noc(C(F)(F)F)n3)cc2)no1	–
3.53	CCOC(=O)c1cnn(C(=O)c2cnn(-c3ccc([N+](=O)[O-])cc3)c2C(F)(F)F)c1N	–
3.71	O=C(NCCc1ccccc1)c1ccc(Cl)cc1	–
2.27	O=C(Cn1cc(C(F)(F)F)cc(Cl)c1=O)N1CCN(C(=O)c2ccco2)CC1	–
–	Cc1nnc2c(=O)n(CCNc3ncc(C(F)(F)F)cc3Cl)c3ccc(Cl)cc3n12	logD (pH 10.5): 4.57
4.84	C=CCOC(=O)COc1ccc2c(=O)c(-c3ccc(Cl)cc3)c(C)oc2c1	–
–	COc1ccccc1N1C(=O)c2ccc(C(=O)Nc3ccc(-c4nnc(-c5ccccc5)o4)cc3)cc2C1=O	logD (pH 6.5): 6.17
4.68	O=C1CC(c2cccc([N+](=O)[O-])c2)CC2=C1C(c1ccco1)N(C(=O)C(F)(F)F)c1ccccc1N2 (centres undefined)	–
3.87	NC(=O)c1cc(NC(=O)c2cc(C(F)(F)F)cc(C(F)(F)F)c2)cc(C(N)=O)c1	–
–	O=C(c1cccnc1)N1CCN(S(=O)(=O)c2ccccc2)CC1	logD (pH 7.3): 2.3
–	O=C(COc1nnc(SCC(=O)c2ccc3c(c2)OCCO3)n1C1Cc2ccccc2C1)c1ccc(F)cc1	logD (pH 6.5): 5.47
–	Cc1nc2c(N)nnc(N)c2nc1C	logD (pH 10.5): 1.14
5.39	Cc1cc(C(=O)COC(=O)c2oc3ccccc3c2COC(C)C)c(C)n1-c1c(C)n(C)n(-c2ccccc2)c1=O	–
–	CCn1c(SCC(=O)Nc2ccc(C(=O)OC)cc2)nnc1-c1ccccc1	logD (pH 7.3): 4.24
–	CCOc1ccc(CC(=O)C2=C(N3CCCC3)CCCC2=O)cc1OCC	logD (pH 6.5): 3.3
4.83	Cc1ccc(-n2c(=O)c3cc4c(=O)n(-c5ccc(C)c(C)c5)c(=O)c4cc3c2=O)cc1C	–

logD (pH 5.0)	Structure (SMILES)	further results
4.86	N#Cc1nc2c(S(=O)(=O)c3ccccc3)c(N)n(Cc3ccc(F)cc3)c2nc1C#N	–
–	C=CCNC(=O)CSc1nc(C(F)F)cc(-c2cn(C)nc2C)c1C#N	logD (pH 6.5): 3.74
–	Cc1cc(C)n2nc(SCC(=O)NCCNC(=O)CSc3nc4nc(C)cc(C)n4n3)nc2n1	logD (pH 10.5): 0.82
–	NNc1c(F)c(F)nc(F)c1F	logD (pH 7.0): 0.86
–	CN(C)S(=O)(=O)c1cccc(C(=O)NCCc2ccc(Cl)cc2Cl)c1	logD (pH 10.0): 4.48
4.17	N#CCSc1nc2ccccc2c(=O)n1-c1ccc(OC(F)F)cc1	–
–	Cc1cc2ccccc2c(=O)n1CC(=O)NCC(=O)N1CCN(c2cccc(Cl)c2)CC1	logD (pH 7.3): 4.45
–	O=C(c1ccc2c(c1)C(=O)N(c1nccs1)C2=O)c1ccc2c(c1)C(=O)N(c1nccs1)C2=O	logD (pH 10.0): 3.25
2.77	Cn1ncc(Cl)c1-c1nc(-c2nonc2N)no1	–
–	Cn1c(N)c(C(=O)CSc2nc3ccccc3nc2SCC(=O)c2c(N)n(C)c(=O)n(C)c2=O)c(=O)n(C)c1=O	logD (pH 10.5): 2.59
–	Cc1cc(Br)ccc1NC(=O)CSc1nnc(N)s1	logD (pH 7.3): 2.69
4.26	CN(C1=NS(=O)(=O)c2ccccc21)c1ccc(OC(=O)c2ccccc2)cc1	–
–	Cc1cc(C(F)(F)F)n2nc(-c3nnc(-c4cccc(C(F)(F)F)c4)o3)cc2n1	logD (pH 10.0): 4.92
4.69	CCc1ccc(-n2nnnc2SCC(=O)Nc2ccc(C(C)=O)cc2)cc1	–
–	COc1cc(C=O)ccc1OS(=O)(=O)c1ccc(F)c(F)c1	logD (pH 6.5): 3.68
3.04	CC1(C)OC(=O)C(=Cc2ccc([N+](=O)[O-])s2)C(=O)O1	–
4.55	Cc1ccc(-c2cc(C(F)F)n3ncc(C(=O)N4CCSCC4)c3n2)cc1	–
–	COc1ccc(-c2nnc(SCC(=O)c3c(N)n(C)c(=O)n(C)c3=O)n2-c2cccc(C(F)(F)F)c2)cc1	logD (pH 10.5): 4.89
4.54	Cc1ccc(NC(=O)c2ccc(S(=O)(=O)N3CCOCC3)cc2)c(C(=O)c2ccccc2)c1	–
5.89	CCCc1ccc(OCc2ccc(C(=O)Nc3ccccc3C(=O)OC)o2)c(OC)c1	–
3.72	c1ccc(-n2nnnc2OCCOc2nnnn2-c2ccccc2)cc1	–
3.82	COC(=O)c1cc(C(=O)OCC(=O)c2[nH]c(C)c(C(C)=O)c2C)cc([N+](=O)[O-])c1	–
4.15	COc1ccc(C(=O)CSc2nnc(-c3ccccc3)o2)cc1	–

logD (pH 5.0)	Structure (SMILES)	further results
5.68	Cc1c(C(=O)Nc2ccc(S(=O)(=O)N3CCCCCC3)cc2)oc2ccc(F)cc12	–
–	CCn1c(SCc2nc3c4cnn(C)c4ncn3n2)nnc1-c1cc(C(F)(F)F)n(C)n1	logD (pH 7.3): 3.85
–	COc1cccc(Cn2cc(N)cn2)c1	logD (pH 7.3): 1.55
2.71	CC(C)(C)NC(=S)Nc1ccc(F)cc1	–
–	Cc1c(C)c(C)c(CSc2nnc(CC#N)n2C)c(C)c1C	logD (pH 6.5): 4.14
5.35	CCCCOc1ccc(C(=O)N(CCN2C(=O)c3ccccc3C2=O)c2cccc(OC)c2)cc1	–
1.88	O=C(c1c(F)cccc1F)N1CCCC1	–
–	N#CCOC(=O)c1ccccc1SCC(=O)N1CCCC1	logD (pH 6.5): 2.57
4.34	CCOC(=O)N1CCN(C(=O)/C=C/c2ccc(Cl)c(Cl)c2)CC1	–
5.22	COc1ccc(S(=O)(=O)n2c(=O)n(S(=O)(=O)c3ccc(OC)cc3)c3ccccc32)cc1	–
4.62	C=CCn1c(C)c(C=C2C(=O)OC3(CCCCC3)OC2=O)c2ccccc21	–
–	CS(=O)(=O)N(CC(=O)Nc1c(F)cccc1F)c1cc(Cl)c(Cl)cc1Cl	logD (pH 6.5): 4.34
2.78	O=C(Cn1c(=O)n(-c2ccccc2)c(=O)n1CC(=O)N1CCCCC1)N1CCCCC1	–
6.28	CCCCCCSC1=C(C#N)C(c2cccs2)C(C(=O)Nc2ccccc2OC)=C(C)N1 (centres undefined)	–
2.46	CCOc1nc(C#N)nc(N2CCOCC2)n1	–
3.64	COc1ccc(C(=O)Nc2cccc(F)c2)cc1S(=O)(=O)N1CCOCC1	–
–	CC(=O)Oc1cc(C(=O)Nc2ccc(Oc3ccccc3)cc2)cc(OC(C)=O)c1OC(C)=O	logD (pH 10.5): 2.89
5.31	O=C(COC(=O)c1cccc(S(=O)(=O)N2CCc3ccccc32)c1)Nc1ccc(F)c(F)c1F	–
5.51	CSc1nc2c(C#N)c(SC)nn2c(-c2ccc(Cl)cc2)c1C#N	–
3.45	COc1ccc2c(C)c(C)c(=O)oc2c1C	–
3.3	O=C1c2ccccc2C(=O)N1c1ccccc1S(=O)C(F)(F)F (centres undefined)	–
–	Cc1c(C(=O)N2CCN(S(=O)(=O)c3ccccc3)CC2)sc2nc3n(c(=O)c12)CCCCC3	logD (pH 10.5): 4.13
–	CC(=O)c1sc(SCCOc2ccccc2)nc1C	logD (pH 2.0): 3.86
